Measured values published in patent publication US20250122192A1, “5-PYRIMIDINECARBOXAMIDE DERIVATIVES AND METHODS OF USING THE SAME” (Rgenta Therapeutics, Inc., priority 2021, published 2025).

Each compound was assayed on PMS1 (assay: Mini-gene reporter assay-PMS1). Settings: Homo sapiens, HEK293, PMS1 mini-gene firefly luciferase reporter transiently transfected into HEK293 cells; read-out: PMS1 IC50.
Assay type: cell-based
Description: Biological Activity of the Compounds of the Present Disclosure Mini-gene reporter assay-PMS1
Mini-gene reporter constructs for each target site can be constructed by first PCR amplifying the region-of-interest including the sequence of the alternatively skipped, sequences of the immediate upstream and downstream introns, and sequences of the immediate upstream and downstream exons. Then the 3′end of the amplified sequence can be ligated to a firefly luciferase reporter gene and cloned into the pcDNA3.1 vector backbone. The final reporter construct can be transiently transfected into HEK293 cells using Lipofectamine 3000 transfection reagents. Compounds that can induce the inclusion of the skipped exon in the reporter construct would increase the reporter firefly luciferase activity.
Test compounds may be diluted in duplicates and dispensed into an assay plate. Transient mini-gene reporter cell line stock is resuspended and dispensed into the assay plate. Assay plates are then centrifuged and incubated. A luciferase reagent (e.g. ONE-Glo firefly luciferase reagent from Promega®) may be added to the assay plate and the luminescence (RLU) signals recorded. PMS1 EC50 values may be determined by curve fitting in Levenberg-Marquardt algorithm.

| IC50 | SMILES |
| --- | --- |
| < 0.5 µM | CCOc1nc(N(C)C2CCCNCC2)ncc1C(=O)Nc1cn2cc(C)nc2c(C)n1 (stereo not shown) [Compound 46] |
| > 3 µM | CCOc1nc(N2CC3CCNCC32)ncc1C(=O)Nc1cn2cc(C)nc2c(C)n1 (stereo not shown) [Compound 48] |
| < 0.5 µM | CCOc1nc(N2CCCC3CNCCC32)ncc1C(=O)Nc1cn2cc(C)nc2c(C)n1 (stereo not shown) [Compound 49] |
| < 0.5 µM | CCOc1nc(N2CC3(CCNC3)C2)ncc1C(=O)Nc1cn2cc(C)nc2c(C)n1 [Compound 51] |
| > 3 µM | CCOc1nc(N2CC(C3CNC3)C2)ncc1C(=O)Nc1cn2cc(C)nc2c(C)n1 [Compound 52] |
| 0.5 to 1 µM | CCOc1nc(N2CC3CCC2CN3)ncc1C(=O)Nc1cn2cc(C)nc2c(C)n1 (stereo not shown) [Compound 53] |
| < 0.5 µM | CCOc1nc(N2CCC3(CCCN3)CC2)ncc1C(=O)Nc1cn2cc(C)nc2c(C)n1 [Compound 54] |
| > 3 µM | CCOc1nc(N2C[C@@H]3C[C@H]2CN3)ncc1C(=O)Nc1cn2cc(C)nc2c(C)n1 [Compound 55] |
| 0.5 to 1 µM | CCOc1nc(N2CCC(CNC(C)C)CC2)ncc1C(=O)Nc1cn2cc(C)nc2c(C)n1 [Compound 58] |
| < 0.5 µM | CCOc1nc(N2CC(C3CCCCCN3)C2)ncc1C(=O)Nc1cn2cc(C)nc2c(C)n1 (stereo not shown) [Compound 59] |
| > 3 µM | CCOc1nc(N2CCC3(CC2)COC(C)CN3)ncc1C(=O)Nc1cn2cc(C)nc2c(C)n1 (stereo not shown) [Compound 61] |
| < 0.5 µM | CCOc1nc(N2CCC(CNC)C2)ncc1C(=O)Nc1cn2cc(C)nc2c(C)n1 (stereo not shown) [Compound 62] |
| 0.5 to 1 µM | CCOc1nc(N2CCNC(CC)C2)ncc1C(=O)Nc1cn2cc(C)nc2c(C)n1 (stereo not shown) [Compound 63] |
| < 0.5 µM | CCOc1nc(N2CCC3(CCN3)CC2)ncc1C(=O)Nc1cn2cc(C)nc2c(C)n1 [Compound 64] |
| 0.5 to 1 µM | CCOc1nc(N2CCN[C@@H](C(C)C)C2)ncc1C(=O)Nc1cn2cc(C)nc2c(C)n1 [Compound 65] |
| 0.5 to 1 µM | CCOc1nc(N2C[C@@H](C)N[C@@H](C)C2)ncc1C(=O)Nc1cn2cc(C)nc2c(C)n1 [Compound 67] |
| > 3 µM | CCOc1nc(N2CC3(CCNCC3)CC2C)ncc1C(=O)Nc1cn2cc(C)nc2c(C)n1 (stereo not shown) [Compound 68] |
| < 0.5 µM | CCNC1CCN(c2ncc(C(=O)Nc3cn4cc(C)nc4c(C)n3)c(OCC)n2)C1 (stereo not shown) [Compound 70] |
| 0.5 to 1 µM | CCOc1nc(N2CCNC(C)CC2)ncc1C(=O)Nc1cn2cc(C)nc2c(C)n1 (stereo not shown) [Compound 71] |

| IC50 | SMILES |
| --- | --- |
| 0.5 to 1 µM | CCOc1nc(N2CCC(C3CCCN3)CC2)ncc1C(=O)Nc1cn2cc(C)nc2c(C)n1 (stereo not shown) [Compound 73] |
| > 3 µM | CCOc1nc(N2CCC(NCC3CC3)CC2)ncc1C(=O)Nc1cn2cc(C)nc2c(C)n1 [Compound 74] |
| < 0.5 µM | CCOc1nc(N2CCC(CNC)CC2)ncc1C(=O)Nc1cn2cc(C)nc2c(C)n1 [Compound 76] |
| < 0.5 µM | CCOc1nc(N2CC3CNCCC32)ncc1C(=O)Nc1cn2cc(C)nc2c(C)n1 (stereo not shown) [Compound 77] |
| < 0.5 µM | CCOc1nc(N2CCC3(CNC3)C2)ncc1C(=O)Nc1cn2cc(C)nc2c(C)n1 [Compound 78] |
| < 0.5 µM | CCOc1nc(N2CCC3(CCNC3)C2)ncc1C(=O)Nc1cn2cc(C)nc2c(C)n1 (stereo not shown) [Compound 80] |
| 1 to 3 µM | CCOc1nc(N(C)C2CCNC2)ncc1C(=O)Nc1cn2cc(C)nc2c(C)n1 (stereo not shown) [Compound 81] |
| 1 to 3 µM | CCOc1nc(N2CCC3(CCN3)C2)ncc1C(=O)Nc1cn2cc(C)nc2c(C)n1 (stereo not shown) [Compound 82] |
| < 0.5 µM | CCOc1nc(N2C[C@H]3CNC[C@H]3C2)ncc1C(=O)Nc1cn2cc(C)nc2c(C)n1 [Compound 84] |
| > 3 µM | CCOc1nc(N2CC3CNC(C3)C2)ncc1C(=O)Nc1cn2cc(C)nc2c(C)n1 (stereo not shown) [Compound 85] |
| < 0.5 µM | CCOc1nc(N2CCC3(CC2)CNC3)ncc1C(=O)Nc1cn2cc(C)nc2c(C)n1 [Compound 86] |
| 1 to 3 µM | CCOc1nc(N2CC3(CCCNC3)C2)ncc1C(=O)Nc1cn2cc(C)nc2c(C)n1 [Compound 87] |
| < 0.5 µM | CCOc1nc(N2CCC3(CCNCC3)C2)ncc1C(=O)Nc1cn2cc(C)nc2c(C)n1 [Compound 88] |
| > 3 µM | CCOc1nc(N2CCC3(CCNC3)CC2)ncc1C(=O)Nc1cn2cc(C)nc2c(C)n1 [Compound 89] |
| 1 to 3 µM | CCOc1nc(N2CCNCC3(CC3)C2)ncc1C(=O)Nc1cn2cc(C)nc2c(C)n1 [Compound 92] |
| > 3 µM | CCOc1nc(N2CCC3(CC2)COCCN3)ncc1C(=O)Nc1cn2cc(C)nc2c(C)n1 [Compound 94] |
| 1 to 3 µM | CCOc1nc(N2CCC3(CCCCN3)C2)ncc1C(=O)Nc1cn2cc(C)nc2c(C)n1 (stereo not shown) [Compound 96] |
| 1 to 3 µM | CCOc1nc(N2CC3CCC2C2CNCC32)ncc1C(=O)Nc1cn2cc(C)nc2c(C)n1 (stereo not shown) [Compound 97] |

More lines, now with the values behind:

| SMILES | IC50 |
| --- | --- |
| CCOc1nc(N2CC3CNCC3C2)ncc1C(=O)Nc1cn2cc(C)nc2c(C)n1 (stereo not shown) [Compound 20, N-{2,8-dimethylimidazo[1,2-a]pyrazin-6-yl}-4-ethoxy-2-{octahydropyrrolo[3,4-c]pyrrol-2-yl}pyrimidine-5-carboxamide] | < 0.5 µM |
| Cc1cn2cc(NC(=O)c3cnc(N4CCNCC4)nc3)cc(F)c2n1 [Compound 21, N-{8-fluoro-2-methylimidazo[1,2-a]pyridin-6-yl}-2-(piperazin-1-yl)pyrimidine-5-carboxamide] | 1 to 3 µM |
| COc1nc(N2CC3CNCC3C2)ncc1C(=O)Nc1cn2cc(C)nc2c(C)n1 (stereo not shown) [Compound 22, N-{2,8-dimethylimidazo[1,2-a]pyrazin-6-yl}-4-methoxy-2-{octahydropyrrolo[3,4-c]pyrrol-2-yl}pyrimidine-5-carboxamide] | < 0.5 µM |
| CCOc1nc(N2CCNC3CCCCC32)ncc1C(=O)Nc1cn2cc(C)nc2c(C)n1 (stereo not shown) [Compound 23] | > 3 µM |
| CCOc1nc(N2CCNCC2)ncc1C(=O)Nc1ccc2nn(C)cc2c1 [Compound 25, 4-ethoxy-N-(2-methyl-2H-indazol-5-yl)-2-(piperazin-1-yl)pyrimidine-5-carboxamide] | 1 to 3 µM |
| CCOc1nc(N2CCNCC2)ncc1C(=O)Nc1cc(F)c2nn(C)cc2c1 [Compound 26, 4-ethoxy-N-(7-fluoro-2-methyl-2H-indazol-5-yl)-2-(piperazin-1-yl)pyrimidine-5-carboxamide] | 0.5 to 1 µM |
| CCOc1nc(N2CCNCC2)ncc1C(=O)Nc1cc(OC)c2nc(C)cn2c1 [Compound 27, 4-ethoxy-N-{8-methoxy-2-methylimidazo[1,2-a]pyridin-6-yl}-2-(piperazin-1-yl)pyrimidine-5-carboxamide] | 0.5 to 1 µM |
| CCOc1nc(N2CC3CNCC3C2)ncc1C(=O)Nc1cn2cc(C)nc2cn1 (stereo not shown) [Compound 28, 4-ethoxy-N-{2-methylimidazo[1,2-a]pyrazin-6-yl}-2-{octahydropyrrolo[3,4-c]pyrrol-2-yl}pyrimidine-5-carboxamide] | 1 to 3 µM |
| CCOc1nc(N2CC(C)NCC2C)ncc1C(=O)Nc1cn2cc(C)nc2c(C)n1 (stereo not shown) [Compound 32] | 1 to 3 µM |
| CCOc1nc(N2CC3(CC(NC)CO3)C2)ncc1C(=O)Nc1cn2cc(C)nc2c(C)n1 (stereo not shown) [Compound 33] | > 3 µM |
| CCOc1nc(N2CCCC(C3CCCCN3)C2)ncc1C(=O)Nc1cn2cc(C)nc2c(C)n1 (stereo not shown) [Compound 34] | > 3 µM |
| CCOc1nc(N2CCNC(C)C2C)ncc1C(=O)Nc1cn2cc(C)nc2c(C)n1 (stereo not shown) [Compound 35] | > 3 µM |
| CCN(c1ncc(C(=O)Nc2cn3cc(C)nc3c(C)n2)c(COC)n1)C1CCNCC1 [Compound 36] | < 0.5 µM |
| CCOc1nc(N(C)C2CC3CCC(C2)N3)ncc1C(=O)Nc1cn2cc(C)nc2c(C)n1 (stereo not shown) [Compound 37] | < 0.5 µM |
| CCOc1nc(N2CCC(C3CCCN3)C2)ncc1C(=O)Nc1cn2cc(C)nc2c(C)n1 (stereo not shown) [Compound 38] | 1 to 3 µM |
| CCOc1nc(N2CCC(NC)CC2)ncc1C(=O)Nc1cn2cc(C)nc2c(C)n1 [Compound 39] | < 0.5 µM |
| CCOc1nc(N2CCNCCC2C)ncc1C(=O)Nc1cn2cc(C)nc2c(C)n1 (stereo not shown) [Compound 40] | 1 to 3 µM |
| CCOc1nc(N2CCNCC2C)ncc1C(=O)Nc1cn2cc(C)nc2c(C)n1 (stereo not shown) [Compound 42] | 0.5 to 1 µM |
| CCOc1nc(N2CC(NC)C2)ncc1C(=O)Nc1cn2cc(C)nc2c(C)n1 [Compound 43] | > 3 µM |
| CCOc1nc(N2CC3C4CCC(NC4)C3C2)ncc1C(=O)Nc1cn2cc(C)nc2c(C)n1 (stereo not shown) [Compound 44] | 1 to 3 µM |
| CCNC1COC2(C1)CN(c1ncc(C(=O)Nc3cn4cc(C)nc4c(C)n3)c(OCC)n1)C2 (stereo not shown) [Compound 45] | > 3 µM |
| CCOc1nc(N(C)[C@@H]2C[C@H]3CC[C@@H](C2)N3)ncc1C(=O)Nc1cn2cc(C)nc2c(C)n1 [Compound 56] | 0.5 to 1 µM |
| CCOc1nc(N(C)C2CCNCC2)ncc1C(=O)Nc1cn2cc(C)nc2c(C)n1 [Compound 57] | < 0.5 µM |

Same assay, conditions: Homo sapiens; at 5 μM; PMS1 mini-gene firefly luciferase reporter in HEK293 cells; read-out: PMS1% Effect at 5 μM

| SMILES | activation at 5 µM |
| --- | --- |
| CCOc1nc(N2CC3(CCN3)C2)ncc1C(=O)Nc1cn2cc(C)nc2c(C)n1 [Compound 24] | 50 to 75% |
| CCOc1nc(N2CCNC3CC32)ncc1C(=O)Nc1cn2cc(C)nc2c(C)n1 (stereo not shown) [Compound 47] | < 50% |
| CCOc1nc(N2CC(CO)C3(CNC3)C2)ncc1C(=O)Nc1cn2cc(C)nc2c(C)n1 (stereo not shown) [Compound 50] | < 50% |
| CCOc1nc(N2CCC(C3(O)CCNCC3)CC2)ncc1C(=O)Nc1cn2cc(C)nc2c(C)n1 [Compound 66] | < 50% |
| CCOc1nc(N2CC(C3CCNC3)C2)ncc1C(=O)Nc1cn2cc(C)nc2c(C)n1 (stereo not shown) [Compound 69] | 50 to 75% |
| CCOc1nc(N2CCC(C3(O)CNC3)CC2)ncc1C(=O)Nc1cn2cc(C)nc2c(C)n1 [Compound 75] | < 50% |
| CCOc1nc(N2CC(CO)C3(CCNCC3)C2)ncc1C(=O)Nc1cn2cc(C)nc2c(C)n1 (stereo not shown) [Compound 91] | < 50% |
